Assay results: patent publication US11643421B2, “Process for the preparation of tricyclic PI3K inhibitor compounds and methods for using the same for the treatment of cancer” (priority 2015, dated 2023)

Test: MALDI imaging of brain distribution, U87 orthotopic model
Type: in vivo, female nude mice
Conditions: re-analysis of previously obtained images (Salphati et al. 2014)
Description: Mice were euthanized at 1 and 6 hours post-dose via exsanguination by perfusion under anesthesia. Brains were excised, flash frozen in liquid N2 and stored in a −80° C. freezer until analyzed. Fresh frozen tissue sections were obtained on a cryomicrotome (Leica CM3050S, Buffalo Grove, Ill.) at 12 μm thickness and thaw-mounted onto indium tin oxide coated glass slides (Bruker Daltonics, Billerica, Mass.). Tissue sections were an analyzed by imaging MALDI MS, providing signal intensities (and not absolute quantitation), followed by cresyl violet staining for histological interrogation.
For MALDI MAS analysis, a 40 mg/mL solution of 2,5-dihydroxybenzoic acid (Sigma-Aldrich, St. Louis, Mo.) was prepared in methanol:water (70:30 v/v). […] Matrix solution was homogenously spray-coated onto the tissue using a HTX TM-Sprayer (HTX technologies. Chapel Hill, N.C.). Matrix-coated tissue sections were transferred to the MALDI mass spectrometer (SolariX 7T FT-ICR, Bruker Daltonics, Bremen, Germany) for imaging analysis. […] Laser intensity and number of shots were optimized for sensitivity of the parent drug (1200 shots) with ion detection collected over the mass range of m/z 150-3000.
Following completion of the imaging experiments, matrix coaling was removed by rinsing the glass slide in 100% methanol for 30 seconds or until the entire matrix was visibly removed. […] Microscope images were obtained on an Olympus BX51 (Tokyo, Japan) at 10× magnification and stitched using MicroSuite Analytical v3.0 software (Olympus, Tokyo, Japan). Subsequently, stained images were co-registered to the optical images in FlexImaging for visualization and annotation of tumor and non-tumor regions for the drug images.
To assess drug distribution, imaging MALDI MS data from U87 and GS2 tumor models were co-registered to the cresyl violet stained microscope images in FlexImaging Regions of interest (ROIs) that were selected based on the anatomical features defined in the histological image including tumor and non-tumor regions. Drug intensity for each pixel within the defined ROI was extracted and exported. […] Histogram plots were created in GraphPad Prism 5 to visualize the distribution of pixel intensity frequencies.

## CS(=O)(=O)N1CCN(Cc2cc3nc(-c4cccc5[nH]ncc45)nc(N4CCOCC4)c3s2)CC1 [pictilisib, reference compound]
  distribution of signal intensities in the U87 tumor (MALDI): concentrated in the low intensity bins
